Consider 30 compounds from patent US20240400555A1 (Initial Therapeutics, Inc., priority 2023, published 2024).

Where only a bound is given, the exact number is not on record here.

For one experiment, the system named is MV-4-11 cells. In words: Cell Viability Assay in MV-4-11 Cells. Type of experiment: cell-based. The following applies: Homo sapiens, MV4-11, 72 h. In short, it runs like this:
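Luminescent ATP read-out (CellTiter-Glo) after 72 h compound treatment of MV-4-11 leukaemia cells (7,000 per well, IMDM plus 10% FBS). Values expressed relative to DMSO control and derived by four-parameter non-linear regression.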
On to `C=C(C)c1csc2c(N(C(=O)c3ccc(-c4cn(C)nn4)cc3F)[C@@H]3CCCNC3)nccc12` [Example 675, 2-fluoro-N-(3-isopropenylthieno[2,3-c]703yridine-7-yl)-4-(1-methyltriazol-4-yl)-N-[(3R)-3-piperidyl]benzamide], for which the IC50 was more than 1000 nM.

For `CNC(=O)c1ccc2c(N(C(=O)c3ccc(-c4cn(C)nn4)cc3F)[C@@H]3CCCNC3)nccc2c1` [Example 688, (R)-1-(2-fluoro-4-(1-methyl-1H-1,2,3-triazol-4-yl)-N-(piperidin-3-yl)benzamido)-N-methylisoquinoline-6-carboxamide], the IC50 is more than 4500 nM.

Still in this experiment, the particulars now being: Homo sapiens, MV4-11, 72 h, MV-4-11 cells, 72 h, Cell-Titer Glo; read-out: IC50.
In the case of `Cc1cc(C2CCN(C(=O)N(c3nccc4c(F)ccc(C)c34)[C@@H]3CCCNC3)CC2)on1` [Example 659, (R)—N-(5-fluoro-8-methylisoquinolin-1-yl)-4-(3-methylisoxazol-5-yl)-N-(piperidin-3-yl)piperidine-1-carboxamide], the IC50 was determined as 510 nM.

With `Cc1nnc(-c2ccc(C(=O)N(c3nccc4c(F)ccc(C)c34)[C@@H]3CCCNC3)c(F)c2)o1` [Example 660, (R)-2-fluoro-N-(5-fluoro-8-methylisoquinolin-1-yl)-4-(5-methyl-1,3,4-oxadiazol-2-yl)-N-(piperidin-3-yl)benzamide], the IC50 was determined as 200 nM.

As for `Cc1ccc(F)c2ccnc(N(C(=O)c3ccc(Nc4ncccn4)cc3F)[C@@H]3CCCNC3)c12` [Example 661, (R)-2-fluoro-N-(5-fluoro-8-methylisoquinolin-1-yl)-N-(piperidin-3-yl)-4-(pyrimidin-2-ylamino)benzamide], the half-maximal inhibitory concentration (IC50) was 170 nM.

In the case of `Cc1cccc2ccnc(N(C(=O)c3ccc(Nc4nccc(C5CCNCC5)n4)cc3F)[C@@H]3CCCNC3)c12` [Example 662, (R)-2-fluoro-N-(8-methylisoquinolin-1-yl)-N-(piperidin-3-yl)-4-((4-(piperidin-4-yl)pyrimidin-2-yl)amino)benzamide], the IC50 was found to be 400 nM.

Regarding `Cc1cccc2ccnc(N(C(=O)c3ccc(Nc4nccc(C5CCOCC5)n4)cc3F)[C@@H]3CCCNC3)c12` [Example 663, (R)-2-fluoro-N-(8-methylisoquinolin-1-yl)-N-(piperidin-3-yl)-4-((4-(tetrahydro-2H-pyran-4-yl)pyrimidin-2-yl)amino)benzamide], the IC50 came out at 110 nM.

Regarding `Cc1nnc(-c2ccc(C(=O)N(c3nccc4c(Cl)cn(C)c34)[C@@H]3CCCNC3)c(F)c2)s1` [Example 664, (R)—N-(3-chloro-1-methyl-1H-pyrrolo[2,3-c]pyridin-7-yl)-2-fluoro-4-(5-methyl-1,3,4-thiadiazol-2-yl)-N-(piperidin-3-yl)benzamide], the IC50 is 200 nM.

With `Cc1cccc2ccnc(N(C(=O)c3ccc(Nc4nccc(C5=CCNCC5)n4)cc3F)[C@@H]3CCCNC3)c12` [Example 665, (R)-2-fluoro-N-(8-methylisoquinolin-1-yl)-N-(piperidin-3-yl)-4-((4-(1,2,3,6-tetrahydropyridin-4-yl)pyrimidin-2-yl)amino)benzamide], the IC50 came out at 250 nM.

`CCc1nnc(-c2ccc(C(=O)N(c3nccc4sc(C)nc34)[C@@H]3CCCNC3)c(F)c2)s1` [Example 667, (R)-4-(5-ethyl-1,3,4-thiadiazol-2-yl)-2-fluoro-N-(2-methylthiazolo[4,5-c]pyridin-4-yl)-N-(piperidin-3-yl)benzamide]: the IC50 was found to be 55 nM.

On to `CCc1nnc(-c2ccc(C(=O)N(c3nccc4scc(Cl)c34)[C@@H]3CCCNC3)nc2)s1` [Example 668, N-(3-chlorothieno[3,2-c]pyridin-4-yl)-5-(5-ethyl-1,3,4-thiadiazol-2-yl)-N-[(3R)-3-piperidyl]pyridine-2-carboxamide], for which the IC50 is 250 nM.

`CCc1nnc(-c2ccc(C(=O)N(c3nccc4c(C)csc34)[C@@H]3CCCNC3)nc2)s1` [Example 669, 5-(5-ethyl-1,3,4-thiadiazol-2-yl)-N-(3-methylthieno[2,3-c]pyridin-7-yl)-N-[(3R)-3-piperidyl]pyridine-2-carboxamide]: the IC50 was 3200 nM.

Take `CCc1nnc(-c2ccc(C(=O)N(c3nccc4scc(C)c34)[C@@H]3CCCNC3)nc2)s1` [Example 670, (R)-5-(5-ethyl-1,3,4-thiadiazol-2-yl)-N-(3-methylthieno[3,2-c]pyridin-4-yl)-N-(piperidin-3-yl)picolinamide]: the IC50 was 170 nM.

For `CCc1nnc(-c2ccc(C(=O)N(c3nccc4cc(C)cc(C)c34)[C@@H]3CCCNC3)nc2)s1` [Example 671, (R)—N-(6,8-dimethylisoquinolin-1-yl)-5-(5-ethyl-1,3,4-thiadiazol-2-yl)-N-(piperidin-3-yl)picolinamide], the IC50 worked out at 130 nM.

For the compound `CCc1nnc(-c2ccc(C(=O)N(c3nccc4cc(F)cc(C)c34)[C@@H]3CCCNC3)nc2)s1` [Example 672, (R)-5-(5-ethyl-1,3,4-thiadiazol-2-yl)-N-(6-fluoro-8-methylisoquinolin-1-yl)-N-(piperidin-3-yl)picolinamide], the IC50 was 180 nM.

For `CCc1nnc(-c2ccc(C(=O)N(c3nccc4cccc(C)c34)[C@@H]3CCCNC3)nc2)s1` [Example 673, 5-(5-ethyl-1,3,4-thiadiazol-2-yl)-N-(8-methyl-1-isoquinolyl)-N-[(3R)-3-piperidyl]pyridine-2-carboxamide], the IC50 came out at 240 nM.

With `C#Cc1csc2ccnc(N(C(=O)c3ccc(-c4cn(C)nn4)cc3F)[C@@H]3CCCNC3)c12` [Example 674, (R)—N-(3-ethynylthieno[3,2-c]pyridin-4-yl)-2-fluoro-4-(1-methyl-1H-1,2,3-triazol-4-yl)-N-(piperidin-3-yl)benzamide], the IC50 turned out to be 100 nM.

Turning to `C#Cc1csc2c(N(C(=O)c3ccc(-c4cn(C)nn4)cc3F)[C@@H]3CCCNC3)nccc12` [Example 676, N-(3-ethynylthieno[2,3-c]704yridine-7-yl)-2-fluoro-4-(1-methyltriazol-4-yl)-N-[(3R)-3-piperidyl]benzamide], the IC50 came to 190 nM.

Regarding `Cc1csc2c(N(C(=O)c3ccc(-c4cn(C)nn4)cc3F)[C@@H]3CCCNC3)nccc12` [Example 677, (R)-2-fluoro-4-(1-methyl-1H-1,2,3-triazol-4-yl)-N-(3-methylthieno[2,3-c]pyridin-7-yl)-N-(piperidin-3-yl)benzamide], the IC50 is 1400 nM.

Consider `Cn1cc(-c2ccc(C(=O)N(c3nccc4c(Cl)csc34)[C@@H]3CCCNC3)c(F)c2)nn1` [Example 678, N-(3-chlorothieno[2,3-c]705yridine-7-yl)-2-fluoro-4-(1-methyltriazol-4-yl)-N-[(3R)-3-piperidyl]benzamide], for which the half-inhibitory concentration (IC50) was found to be 350 nM.

For the compound `Cc1cccc2ccnc(N(C(=O)c3ccc(Nc4nccc(C5CCC(O)CC5)n4)cc3F)[C@@H]3CCCNC3)c12` (stereo partly drawn) [Example 679, (R)-2-fluoro-4-((4-(4-hydroxycyclohexyl)pyrimidin-2-yl)amino)-N-(8-methylisoquinolin-1-yl)-N-(piperidin-3-yl)benzamide], the concentration for half-maximal inhibition (IC50) worked out at 200 nM.

Turning to `Cc1cccc2ccnc(N(C(=O)c3ccc(Nc4nccc(N5CC(O)C5)n4)cc3F)[C@@H]3CCCNC3)c12` [Example 680, (R)-2-fluoro-4-((4-(3-hydroxyazetidin-1-yl)pyrimidin-2-yl)amino)-N-(8-methylisoquinolin-1-yl)-N-(piperidin-3-yl)benzamide], the IC50 was found to be 75 nM.

Turning to `Cc1cccc2ccnc(N(C(=O)c3ccc(Nc4nccc(C5=CCC(O)CC5)n4)cc3F)[C@@H]3CCCNC3)c12` (stereo partly drawn) [Example 681, 2-fluoro-4-((4-(4-hydroxycyclohex-1-en-1-yl)pyrimidin-2-yl)amino)-N-(8-methylisoquinolin-1-yl)-N—((R)-piperidin-3-yl)benzamide], the IC50 was determined as 32 nM.

Turning to `Cc1cccc2ccnc(N(C(=O)c3ccc(Nc4nccc(C5=CCN(C)CC5)n4)cc3F)[C@@H]3CCCNC3)c12` [Example 682, (R)-2-fluoro-4-((4-(1-methyl-1,2,3,6-tetrahydropyridin-4-yl)pyrimidin-2-yl)amino)-N-(8-methylisoquinolin-1-yl)-N-(piperidin-3-yl)benzamide], the IC50 was 83 nM.

As for `Cc1cccc2ccnc(N(C(=O)c3ccc(Nc4nccc(Nc5ccncc5)n4)cc3F)[C@@H]3CCCNC3)c12` [Example 683, (R)-2-fluoro-N-(8-methylisoquinolin-1-yl)-N-(piperidin-3-yl)-4-((4-(pyridin-4-ylamino)pyrimidin-2-yl)amino)benzamide], the IC50 was 210 nM.

In the case of `Cc1cccc2ccnc(N(C(=O)c3ccc(Nc4nccc(N5CC[C@@H](O)C5)n4)cc3F)[C@@H]3CCCNC3)c12` [Example 684, 2-fluoro-4-((4-((R)-3-hydroxypyrrolidin-1-yl)pyrimidin-2-yl)amino)-N-(8-methylisoquinolin-1-yl)-N—((R)-piperidin-3-yl)benzamide], the IC50 was determined as 59 nM.

Regarding `Cc1cccc2ccnc(N(C(=O)c3ccc(Nc4nccc(C5=CCOCC5)n4)cc3F)[C@@H]3CCCNC3)c12` [Example 685, (R)-4-((4-(3,6-dihydro-2H-pyran-4-yl)pyrimidin-2-yl)amino)-2-fluoro-N-(8-methylisoquinolin-1-yl)-N-(piperidin-3-yl)benzamide], the IC50 was determined as 49 nM.

With `Cc1cccc2ccnc(N(C(=O)c3ccc(Nc4nccc(CN5CCNCC5)n4)cc3F)[C@@H]3CCCNC3)c12` [Example 686, (R)-2-fluoro-N-(8-methylisoquinolin-1-yl)-4-((4-(piperazin-1-ylmethyl)pyrimidin-2-yl)amino)-N-(piperidin-3-yl)benzamide], the IC50 was determined as 460 nM.

Take `Cc1cccc2ccnc(N(C(=O)c3ccc(Nc4nccc(CN5CCCCC5)n4)cc3F)[C@@H]3CCCNC3)c12` [Example 687, (R)-2-fluoro-N-(8-methylisoquinolin-1-yl)-4-((4-(piperidin-1-ylmethyl)pyrimidin-2-yl)amino)-N-(piperidin-3-yl)benzamide]: the IC50 stood at 40 nM.

On to `Cc1cn(-c2ccc(C(=O)N(c3nccc4scc(C)c34)[C@@H]3CCCNC3)cc2)nn1` [Example 689, (R)-4-(4-methyl-1H-1,2,3-triazol-1-yl)-N-(3-methylthieno[3,2-c]pyridin-4-yl)-N-(piperidin-3-yl)benzamide], for which the half-maximal inhibitory concentration (IC50) was determined as 120 nM.

What is called IC50 is the point on the concentration scale where inhibition reaches its midpoint.
